Data taken from US11135320B2, “Radioligands for pretargeted pet imaging and methods of their therapeutic use” (priority 2015, dated 2021).
“And” between values parts separate entries of the source, which are not always exact repeats. Equal entries are not always repeated.

Tested on: subcutaneous SW1222 xenografts (A33 antigen-expressing human colorectal carcinoma)
Test: Pretargeted biodistribution with huA33-TCO and ^64Cu-tetrazine radioligand
Assay type: in vivo, athymic nude mice
Protocol: Female athymic nude mice bearing subcutaneous SW1222 (right shoulder) xenografts (100-150 mm^3, 18-21 days post-inoculation) were administered 100 μg (0.66 nmol) huA33-TCO (in 200 μL 0.9% sterile saline) via intravenous tail vein injection. […] The specific activity of the radiotracer was adjusted using cold ^natCu-Tz-SarAr such that the molar ratio of Tzinjected:huA^33injected=1:1. Animals (n=4 per group) were euthanized by CO2(g) asphyxiation at 1, 4, 12, and 24 h after injection. After asphyxiation, 13 tissues were removed, rinsed in water, dried in air for 5 min, weighed, and counted in a gamma counter calibrated for ^64Cu. Counts were converted into activity using a calibration curve generated from known standards. Count data were background- and decay-corrected to the time of injection, and the percent injected dose per gram (% ID/g) for each tissue sample was calculated by normalization to the total activity injected. Contents within the stomach, small intestine, and large intestine were not removed for the measurements.
Contents within the stomach, small intestine, and large intestine were not removed for the measurements. […] Zeglis, B. M. et al. “A pretargeted PET imaging strategy based on bioorthogonal Diels-Alder click chemistry.” Journal of Nuclear Medicine. 54, 1389-1396 (2013). ©2013 by the Society of Nuclear Medicine and Molecular Imaging, Inc.
Zeglis, B. M. et al. “A pretargeted PET imaging strategy based on bioorthogonal Diels-Alder click chemistry.” Journal of Nuclear Medicine. 54, 1389-1396 (2013). ©2013 by the Society of Nuclear Medicine and Molecular Imaging, Inc.
(§1) Female athymic nude mice bearing subcutaneous SW1222 (right shoulder) xenografts (100-150 mm^3, 18-21 days post-inoculation) were administered 100 μg (0.66 nmol) huA33-TCO (in 200 μL 0.9% sterile saline) via intravenous tail vein injection. After an accumulation interval of 48 h, the same mice were then administered ^64Cu-Tz-SarAr (300-350 μCi in 200 μL 0.9% sterile saline) via intravenous tail vein injection (t=0). The specific activity of the radiotracer was adjusted using cold ^natCu-Tz-SarAr such that the molar ratio of Tzinjected:huA^33injected=1:1. Animals (n=4 per group) were euthanized by CO2(g) asphyxiation at 1, 4, 12, and 24 h after injection. After asphyxiation, tissues were removed, rinsed in water, dried in air for 5 min, weighed, and counted in a gamma counter calibrated for ^64Cu. Counts were converted into activity using a calibration curve generated from known standards. Count data were background- and decay-corrected to the time of injection, and the percent injected dose per gram (% ID/g) for each tissue sample was calculated by normalization to the total activity injected. Contents within the stomach, small intestine, and large intestine were not removed for the measurements.
as §1, with “120” for “48”, “Contents within the stomach, small intestine, and large intestine were not removed for the measurements.” left out

[1] = 24 h accumulation interval, 1 h p.i.
[2] = 24 h accumulation interval, 4 h p.i.
[3] = 24 h accumulation interval, 12 h p.i.
[4] = 24 h accumulation interval, 24 h p.i.
[5] = 48 h accumulation interval, 1 h p.i.
[6] = 48 h accumulation interval, 4 h p.i.

SMILES: NC12CNCCNCC(NCc3ccc(CNC(=O)CCCC(=O)NCc4ccc(-c5nncnn5)cc4)cc3)(CNCCNC1)CNCCNC2.[64Cu+2] [^64Cu-Tz-SarAr]
- Blood activity concentration [1]: 4.2±0.8 % ID/g and 4.20 ± 0.80^a % ID/g
- Bone activity concentration [1]: 0.67 ± 0.14 % ID/g
- Heart activity concentration [1]: 1.81 ± 0.46 % ID/g
- Kidney activity concentration [1]: 3.1±0.3 % ID/g and 3.08 ± 0.28 % ID/g
- Large Intestine activity concentration [1]: 0.21±0.09 % ID/g
- Liver activity concentration [1]: 1.60 ± 0.12 % ID/g
- Lung activity concentration [1]: 1.65 ± 0.51 % ID/g
- Muscle activity concentration [1]: 0.38 ± 0.06 % ID/g
- Small Intestine activity concentration [1]: 0.88 ± 0.09 % ID/g
- Spleen activity concentration [1]: 0.98 ± 0.25 % ID/g
- Stomach activity concentration [1]: 0.73 ± 0.19 % ID/g
- Tumor activity concentration [1]: 5.63±0.67 % ID/g
- Tumor/Blood activity concentration ratio [1]: 1.34 ± 0.3
- Tumor/Bone activity concentration ratio [1]: 8.43 ± 2.07
- Tumor/Heart activity concentration ratio [1]: 3.11 ± 0.87
- Tumor/Kidney activity concentration ratio [1]: 1.83 ± 0.27
- Tumor/Large Intestine activity concentration ratio [1]: 26.88 ± 12.11
- Tumor/Liver activity concentration ratio [1]: 3.52 ± 0.49
- Tumor/Lung activity concentration ratio [1]: 3.40 ± 1.12
- Tumor/Muscle activity concentration ratio [1]: 14.9±2.9 and 14.92 ± 2.85
- Tumor/Small Intestine activity concentration ratio [1]: 6.42 ± 1.01
- Tumor/Spleen activity concentration ratio [1]: 5.75 ± 1.61
- Tumor/Stomach activity concentration ratio [1]: 7.75 ± 2.24
- Blood activity concentration [2]: 4.0±0.37 % ID/g
- Bone activity concentration [2]: 0.34 ± 0.18 % ID/g
- Heart activity concentration [2]: 1.45 ± 0.03 % ID/g
- Kidney activity concentration [2]: 2.77 ± 0.57 % ID/g
- Large Intestine activity concentration [2]: 0.48 ± 0.09 % ID/g
- Liver activity concentration [2]: 1.45 ± 0.21 % ID/g
- Lung activity concentration [2]: 1.55 ± 0.45 % ID/g
- Muscle activity concentration [2]: 0.37 ± 0.07 % ID/g
- Small Intestine activity concentration [2]: 0.62 ± 0.06 % ID/g
- Spleen activity concentration [2]: 0.81 ± 0.20 % ID/g
- Stomach activity concentration [2]: 0.56 ± 0.20 % ID/g
- Tumor activity concentration [2]: 5.56±0.91 % ID/g and 5.6±0.9 % ID/g
- Tumor/Blood activity concentration ratio [2]: 1.39 ± 0.26
- Tumor/Bone activity concentration ratio [2]: 16.15 ± 8.89
- Tumor/Heart activity concentration ratio [2]: 3.84 ± 0.63
- Tumor/Kidney activity concentration ratio [2]: 2.00 ± 0.53
- Tumor/Large Intestine activity concentration ratio [2]: 11.65 ± 2.99
- Tumor/Liver activity concentration ratio [2]: 3.83 ± 0.83
- Tumor/Lung activity concentration ratio [2]: 3.59 ± 1.20
- Tumor/Muscle activity concentration ratio [2]: 14.84 ± 3.69
- Tumor/Small Intestine activity concentration ratio [2]: 8.96 ± 1.71
- Tumor/Spleen activity concentration ratio [2]: 6.88 ± 2.01
- Tumor/Stomach activity concentration ratio [2]: 9.91 ± 3.85
- Blood activity concentration [3]: 2.19 ± 0.39 % ID/g
- Bone activity concentration [3]: 0.23 ± 0.05 % ID/g
- Heart activity concentration [3]: 0.84 ± 0.1 % ID/g
- Kidney activity concentration [3]: 1.87 ± 0.42 % ID/g
- Large Intestine activity concentration [3]: 0.20 ± 0.04 % ID/g
- Liver activity concentration [3]: 1.33 ± 0.53 % ID/g
- Lung activity concentration [3]: 1.24 ± 0.22 % ID/g
- Muscle activity concentration [3]: 0.15 ± 0.01 % ID/g
- Small Intestine activity concentration [3]: 0.35 ± 0.08 % ID/g
- Spleen activity concentration [3]: 0.65 ± 0.17 % ID/g
- Stomach activity concentration [3]: 0.21 ± 0.1 % ID/g
- Tumor activity concentration [3]: 6.74±1.26 % ID/g
- Tumor/Bone activity concentration ratio [3]: 29.8 ± 8.38
- Tumor/Heart activity concentration ratio [3]: 8.01 ± 1.77
- Tumor/Kidney activity concentration ratio [3]: 3.61 ± 1.05
- Tumor/Large Intestine activity concentration ratio [3]: 33.67±8.82
- Tumor/Liver activity concentration ratio [3]: 5.06 ± 2.23
- Tumor/Lung activity concentration ratio [3]: 5.43 ± 1.41
- Tumor/Small Intestine activity concentration ratio [3]: 19.37 ± 5.95
- Tumor/Spleen activity concentration ratio [3]: 10.34 ± 3.27
- Tumor/Stomach activity concentration ratio [3]: 31.76 ± 16.62
- Blood activity concentration [4]: 2.61 ± 0.20 % ID/g
- Bone activity concentration [4]: 0.29 ± 0.05 % ID/g
- Heart activity concentration [4]: 0.81 ± 0.04 % ID/g
- Kidney activity concentration [4]: 1.9±0.4 % ID/g and 2.00 ± 0.24 % ID/g
- Large Intestine activity concentration [4]: 0.26 ± 0.06 % ID/g
- Liver activity concentration [4]: 1.51 ± 0.2 % ID/g
- Lung activity concentration [4]: 0.99 ± 0.24 % ID/g
- Muscle activity concentration [4]: 0.20 ± 0.07 % ID/g
- Small Intestine activity concentration [4]: 0.45 ± 0.07 % ID/g
- Spleen activity concentration [4]: 0.64 ± 0.04 % ID/g
- Stomach activity concentration [4]: 0.28 ± 0.07 % ID/g
- Tumor activity concentration [4]: 7.38 ± 2.02 % ID/g
- Tumor/Blood activity concentration ratio [4]: 2.83±0.81
- Tumor/Bone activity concentration ratio [4]: 25.46 ± 8.22
- Tumor/Heart activity concentration ratio [4]: 9.10 ± 2.54
- Tumor/Kidney activity concentration ratio [4]: 3.68 ± 1.1
- Tumor/Large Intestine activity concentration ratio [4]: 28.86 ± 10.28
- Tumor/Liver activity concentration ratio [4]: 4.87 ± 1.48
- Tumor/Lung activity concentration ratio [4]: 7.44 ± 2.74
- Tumor/Muscle activity concentration ratio [4]: 37.37±16.1 and 37.37 ± 16.06
- Tumor/Small Intestine activity concentration ratio [4]: 16.33 ± 5.12
- Tumor/Spleen activity concentration ratio [4]: 11.45 ± 3.20
- Tumor/Stomach activity concentration ratio [4]: 26.44 ± 9.89
- activity concentration in all other non-target tissues (24 h accumulation interval, later time points, other than blood and kidneys): less than 1.5 % ID/g
- Blood activity concentration [5]: 2.15 ± 0.5 % ID/g
- Bone activity concentration [5]: 0.23 ± 0.05 % ID/g
- Heart activity concentration [5]: 1.05 ± 0.24 % ID/g
- Kidney activity concentration [5]: 1.98 ± 0.26 % ID/g
- Large Intestine activity concentration [5]: 0.29 ± 0.09 % ID/g
- Liver activity concentration [5]: 1.79 ± 0.09 % ID/g
- Lung activity concentration [5]: 1.68 ± 0.09 % ID/g
- Muscle activity concentration [5]: 0.22 ± 0.11 % ID/g
- Small Intestine activity concentration [5]: 0.54 ± 0.15 % ID/g
- Spleen activity concentration [5]: 0.84 ± 0.27 % ID/g
- Stomach activity concentration [5]: 0.39 ± 0.17 % ID/g
- Tumor activity concentration [5]: 4.49 ± 0.44 % ID/g
- Tumor/Blood activity concentration ratio [5]: 2.09 ± 0.52
- Tumor/Bone activity concentration ratio [5]: 19.48 ± 4.94
- Tumor/Heart activity concentration ratio [5]: 4.27 ± 1.05
- Tumor/Kidney activity concentration ratio [5]: 2.27 ± 0.37
- Tumor/Large Intestine activity concentration ratio [5]: 15.48 ± 5.25
- Tumor/Liver activity concentration ratio [5]: 2.51 ± 0.27
- Tumor/Lung activity concentration ratio [5]: 2.67 ± 0.3
- Tumor/Muscle activity concentration ratio [5]: 20.34 ± 10.25
- Tumor/Small Intestine activity concentration ratio [5]: 8.35 ± 2.48
- Tumor/Spleen activity concentration ratio [5]: 5.34 ± 1.79
- Tumor/Stomach activity concentration ratio [5]: 11.57 ± 5.25
- Blood activity concentration [6]: 1.78±0.28 % ID/g
- Bone activity concentration [6]: 0.32 ± 0.12 % ID/g
- Heart activity concentration [6]: 1.08 ± 0.32 % ID/g
- Kidney activity concentration [6]: 1.83 ± 0.57 % ID/g
- Large Intestine activity concentration [6]: 0.41 ± 0.11 % ID/g
- Liver activity concentration [6]: 1.27 ± 0.19 % ID/g
- Lung activity concentration [6]: 1.53 ± 0.28 % ID/g
- Muscle activity concentration [6]: 0.24 ± 0.08 % ID/g
- Small Intestine activity concentration [6]: 0.33 ± 0.1 % ID/g
- Spleen activity concentration [6]: 0.6 ± 0.09 % ID/g
- Stomach activity concentration [6]: 0.27 ± 0.18 % ID/g
- Tumor activity concentration [6]: 5.2±1.4 % ID/g and 5.15 ± 1.42 % ID/g
- Tumor/Blood activity concentration ratio [6]: 2.9 ± 0.92
- Tumor/Bone activity concentration ratio [6]: 15.86 ± 7.12
- Tumor/Heart activity concentration ratio [6]: 4.75 ± 1.92
- Tumor/Kidney activity concentration ratio [6]: 2.81 ± 1.16
- Tumor/Large Intestine activity concentration ratio [6]: 12.68 ± 4.87
- Tumor/Liver activity concentration ratio [6]: 4.06 ± 1.27
- Tumor/Lung activity concentration ratio [6]: 3.37 ± 1.11
- Tumor/Muscle activity concentration ratio [6]: 21.84 ± 9.2
- Tumor/Small Intestine activity concentration ratio [6]: 15.71 ± 6.48
- Tumor/Spleen activity concentration ratio [6]: 8.55 ± 2.69
- Tumor/Stomach activity concentration ratio [6]: 18.92 ± 13.29
